Measured values from patent US10981894B2, “Melanocortin subtype-2 receptor (MC2R) antagonists and uses thereof” (Crinetics Pharmaceuticals, Inc., priority 2018, dated 2021).

Target: hMC2 receptor (Homo sapiens, UniProt Q01718)
Experiment: hMC2 membrane binding assay ([125I]ACTH (1-39) Tyr23, SPA)
Set-up: scale not given here
Conditions: crude hMC2R membranes from CRE-bla-CHO-K1 cells expressing hMC2 receptor and hMRAP; [125I]ACTH (1-39) Tyr23 0.2 nM; 1.5 hours at room temperature; read-out: MC2R binding potency
Procedure, shortened: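 CRE-bla-CHO-K1 membranes co-expressing hMC2 receptor and hMRAP, preincubated with WGA PVT SPA beads in pH 7.4 HEPES/MgCl2/CaCl2/0.2% BSA buffer. Compounds (typically 0–10,000 nM final) compete with 0.2 nM [125I]ACTH(1-39) Tyr23 for 1.5 h at room temperature. SPA counts give Ki by non-linear regression.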

Chain of hMC2 receptor (Q01718 whole entry): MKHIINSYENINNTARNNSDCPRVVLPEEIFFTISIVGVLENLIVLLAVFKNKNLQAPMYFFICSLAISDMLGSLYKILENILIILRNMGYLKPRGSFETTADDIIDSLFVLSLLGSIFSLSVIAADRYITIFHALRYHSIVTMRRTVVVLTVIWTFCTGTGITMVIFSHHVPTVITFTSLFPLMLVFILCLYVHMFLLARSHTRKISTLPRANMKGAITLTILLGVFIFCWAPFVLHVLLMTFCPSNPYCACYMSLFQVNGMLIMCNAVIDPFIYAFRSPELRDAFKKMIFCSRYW
Chain of hMC2 receptor (Q8TCY5 whole entry partner): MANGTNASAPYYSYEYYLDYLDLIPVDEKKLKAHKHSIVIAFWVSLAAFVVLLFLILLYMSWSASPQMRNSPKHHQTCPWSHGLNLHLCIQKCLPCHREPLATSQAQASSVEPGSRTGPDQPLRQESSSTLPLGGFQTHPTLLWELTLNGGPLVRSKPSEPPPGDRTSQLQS

Ki	SMILES
< 10 nM	CCOc1ncccc1-c1ccc(N2CCN(C(=O)c3ccc(OC)nc3C(F)(F)F)C[C@H]2CC)c(C(=O)N[C@H]2CNC[C@H]2F)n1 [Compound 1-291, 2′-ethoxy-5-[(2R)-2-ethyl-4-[6-methoxy-2-(trifluoromethyl)pyridine-3-carbonyl]piperazin-1-yl]-N-[(3S,4R)-4-fluoropyrrolidin-3-yl]-[2,3′-bipyridine]-6-carboxamide]
< 10 nM	CCOc1ccccc1-c1ccc(N2CCN(C(=O)c3ccc(F)cc3C(F)F)C[C@H]2CC)c(C(=O)N[C@@H]2CCNC2)n1 [Compound 1-292, 3-[(2R)-4-[2-(difluoromethyl)-4-fluorobenzoyl]-2-ethylpiperazin-1-yl]-6-(2-ethoxyphenyl)-N-[(3R)-pyrrolidin-3-yl]pyridine-2-carboxamide]
< 10 nM	CCOc1ccccc1-c1ccc(N2CCN(C(=O)c3ccc(F)cc3C(F)F)C[C@H]2CC)c(C(=O)N[C@@H]2CCN(C)C2)n1 [Compound 1-293, 3-[(2R)-4-[2-(difluoromethyl)-4-fluorobenzoyl]-2-ethylpiperazin-1-yl]-6-(2-ethoxyphenyl)-N-[(3R)-1-methylpyrrolidin-3-yl]pyridine-2-carboxamide]
< 10 nM	CCOc1ncccc1-c1ccc(N2CCN(C(=O)c3ccc(OC)nc3C(F)(F)F)C[C@H]2CC)c(C(=O)N[C@H]2CN(C)C[C@H]2F)n1 [Compound 1-296, 2′-ethoxy-5-[(2R)-2-ethyl-4-[6-methoxy-2-(trifluoromethyl)pyridine-3-carbonyl]piperazin-1-yl]-N-[(3S,4R)-4-fluoro-1-methylpyrrolidin-3-yl]-[2,3′-bipyridine]-6-carboxamide]
< 10 nM	CCOc1ncccc1-c1ccc(N2CCN(C(=O)C3(C(F)(F)F)CC4CCC3C4)C[C@H]2CC)c(C(=O)N[C@@H]2CCNC2)n1 (stereo partly drawn) [Compound 1-297, 2′-ethoxy-5-[(2R)-2-ethyl-4-[2-(trifluoromethyl)bicyclo[2.2.1]heptane-2-carbonyl]piperazin-1-yl]-N-[(3R)-pyrrolidin-3-yl]-[2,3′-bipyridine]-6-carboxamide]
< 10 nM	CCOc1ncccc1-c1ccc(N2CCN(C(=O)C3(C(F)(F)F)CC(F)(F)C3)C[C@H]2CC)c(C(=O)N[C@@H]2CCNC2)n1 [Compound 1-298, 5-[(2R)-4-[3,3-difluoro-1-(trifluoromethyl)cyclobutanecarbonyl]-2-ethylpiperazin-1-yl]-2′-ethoxy-N-[(3R)-pyrrolidin-3-yl]-[2,3′-bipyridine]-6-carboxamide]
< 10 nM	CCOc1ncccc1-c1ccc(N2CCN(C(=O)[C@H]3CC[C@@H](C(F)(F)F)CC3)C[C@H]2CC)c(C(=O)N[C@@H]2CCNC2)n1 [Compound 1-299, 2′-ethoxy-5-[(2R)-2-ethyl-4-[cis-4-(trifluoromethyl)cyclohexanecarbonyl]piperazin-1-yl]-N-[(3R)-pyrrolidin-3-yl]-[2,3′-bipyridine]-6-carboxamide]
< 10 nM	CCOc1ccccc1-c1ccc(N2CCN(C(=O)C3(C(F)(F)F)CCCC3)C[C@H]2CC)c(C(=O)N[C@@H]2CCNC2)n1 [Compound 1-304, 6-(2-ethoxyphenyl)-3-[(2R)-2-ethyl-4-[1-(trifluoromethyl)cyclopentanecarbonyl]piperazin-1-yl]-N-[(3R)-pyrrolidin-3-yl]pyridine-2-carboxamide]
< 10 nM	CCOc1ccccc1-c1ccc(N2CCN(C(=O)N3CCCC3C(C)(C)C)C[C@H]2CC)c(C(=O)N[C@@H]2CCNC2)n1 (stereo partly drawn) [Compound 1-305, 3-[(2R)-4-(2-tert-butylpyrrolidine-1-carbonyl)-2-ethylpiperazin-1-yl]-6-(2-ethoxyphenyl)-N-[(3R)-pyrrolidin-3-yl]pyridine-2-carboxamide]
< 10 nM	CCOc1ncccc1-c1ccc(N2CCN(C(=O)N3CCC[C@H]3C(F)(F)F)C[C@H]2CC)c(C(=O)N[C@@H]2CCNC2)n1 [Compound 1-306, 2′-ethoxy-5-[(2R)-2-ethyl-4-[(2S)-2-(trifluoromethyl)pyrrolidine-1-carbonyl]piperazin-1-yl]-N-[(3R)-pyrrolidin-3-yl]-[2,3′-bipyridine]-6-carboxamide]
< 10 nM	CCOc1ncccc1-c1ccc(N2CCN(C(=O)OC(C(C)(C)C)C(F)(F)F)C[C@H]2CC)c(C(=O)N[C@@H]2CCNC2)n1 (stereo partly drawn) [Compound 1-312, 1,1,1-trifluoro-3,3-dimethylbutan-2-yl (3R)-4-(2′-ethoxy-6-{[(3R)-pyrrolidin-3-yl]carbamoyl}-[2,3′-bipyridin]-5-yl)-3-ethylpiperazine-1-carboxylate]
< 10 nM	CCOc1ncccc1-c1ccc(N2CCN(C(=O)C3(C(F)(F)F)CCCC3)C[C@H]2CC)c(C(=O)NCC2CN(C)C2)n1 [Compound 1-313, 2′-ethoxy-5-[(2R)-2-ethyl-4-[1-(trifluoromethyl)cyclopentanecarbonyl]piperazin-1-yl]-N-[(1-methylazetidin-3-yl)methyl]-[2,3′-bipyridine]-6-carboxamide]
< 10 nM	CCOc1ncccc1-c1ccc(N2CCN(C(=O)C34CCC(CC3)C4(C)C)C[C@H]2CC)c(C(=O)N[C@@H]2CCNC2)n1 [Compound 1-314, 5-[(2R)-4-{7,7-dimethylbicyclo[2.2.1]heptane-1-carbonyl}-2-ethylpiperazin-1-yl]-2′-ethoxy-N-[(3R)-pyrrolidin-3-yl]-[2,3′-bipyridine]-6-carboxamide]
< 10 nM	CC[C@@H]1CN(C(=O)N2CCC[C@H]2C(C)(C)C)CCN1c1ccc(-c2ccccc2OC)nc1C(=O)N[C@@H]1CCNC1 [Compound 1-315, 3-[(2R)-4-[(2S)-2-tert-butylpyrrolidine-1-carbonyl]-2-ethylpiperazin-1-yl]-6-(2-methoxyphenyl)-N-[(3R)-pyrrolidin-3-yl]pyridine-2-carboxamide]
< 10 nM	CCOc1ncccc1-c1ccc(N2CCN(C(=O)N3CCC[C@H]3C(C)(C)F)C[C@H]2CC)c(C(=O)N[C@@H]2CCNC2)n1 [Compound 1-320, 2′-ethoxy-5-[(2R)-2-ethyl-4-[(2S)-2-(2-fluoropropan-2-yl)pyrrolidine-1-carbonyl]piperazin-1-yl]-N-[(3R)-pyrrolidin-3-yl]-[2,3′-bipyridine]-6-carboxamide]
< 10 nM	CCOc1ncccc1-c1ccc(N2CCN(C(=O)C3(C(F)(F)F)CCCC3)C[C@H]2CC)c(C(=O)N[C@H]2CCNC2)n1 [Compound 1-321, 2′-ethoxy-5-[(2R)-2-ethyl-4-[1-(trifluoromethyl)cyclopentanecarbonyl]piperazin-1-yl]-N-[(3S)-pyrrolidin-3-yl]-[2,3′-bipyridine]-6-carboxamide]
< 10 nM	CCOc1ncccc1-c1ccc(N2CCN(C(=O)C3(C(F)(F)F)CCCC3)C[C@H]2CC)c(C(=O)NC[C@H]2CCCN2)n1 [Compound 1-324, 2′-ethoxy-5-[(2R)-2-ethyl-4-[1-(trifluoromethyl)cyclopentanecarbonyl]piperazin-1-yl]-N-{[(2R)-pyrrolidin-2-yl]methyl}-[2,3′-bipyridine]-6-carboxamide]
< 10 nM	CCOc1ncccc1-c1ccc(N2CCN(C(=O)C3(C(F)(F)F)CCCC3)C[C@H]2CC)c(C(=O)NC[C@@H]2CCCN2)n1 [Compound 1-325, 2′-ethoxy-5-[(2R)-2-ethyl-4-[1-(trifluoromethyl)cyclopentanecarbonyl]piperazin-1-yl]-N-{[(2S)-pyrrolidin-2-yl]methyl}-[2,3′-bipyridine]-6-carboxamide]
< 10 nM	CCOc1ncccc1-c1ccc(N2CCN(C(=O)N3CCCC3(C)C(F)(F)F)C[C@H]2CC)c(C(=O)N[C@@H]2CCNC2)n1 (stereo partly drawn) [Compound 1-326, 2′-ethoxy-5-[(2R)-2-ethyl-4-[2-methyl-2-(trifluoromethyl)pyrrolidine-1-carbonyl]piperazin-1-yl]-N-[(3R)-pyrrolidin-3-yl]-[2,3′-bipyridine]-6-carboxamide]
< 10 nM	CCOc1ncccc1-c1ccc(N2CCN(C(=O)C3(C(F)(F)F)CCCC3)C[C@H]2CC)c(C(=O)NC[C@H]2CCN2)n1 [Compound 1-327, N-{[(2R)-azetidin-2-yl]methyl}-2′-ethoxy-5-[(2R)-2-ethyl-4-[1-(trifluoromethyl)cyclopentanecarbonyl]piperazin-1-yl]-[2,3′-bipyridine]-6-carboxamide]
< 10 nM	CCOc1ncccc1-c1ccc(N2CCN(C(=O)C3(CC(F)F)CCC3)C[C@H]2CC)c(C(=O)N[C@@H]2CCNC2)n1 [Compound 1-328, 5-[(2R)-4-[1-(2,2-difluoroethyl)cyclobutanecarbonyl]-2-ethylpiperazin-1-yl]-2′-ethoxy-N-[(3R)-pyrrolidin-3-yl]-[2,3′-bipyridine]-6-carboxamide]
< 10 nM	CCOc1ncccc1-c1ccc(N2CCN(C(=O)C3(C(F)(F)F)CCCC3)C[C@H]2CC)c(C(=O)NC[C@@H]2CCN2)n1 [Compound 1-329, N-{[(2S)-azetidin-2-yl]methyl}-2′-ethoxy-5-[(2R)-2-ethyl-4-[1-(trifluoromethyl)cyclopentanecarbonyl]piperazin-1-yl]-[2,3′-bipyridine]-6-carboxamide]
< 10 nM	CCOc1ncccc1-c1ccc(N2CCN(C(=O)C3(C(F)(F)F)CCCC3)C[C@H]2CC)c(C(=O)NC[C@H]2CCN2C)n1 [Compound 1-330, 2′-ethoxy-5-[(2R)-2-ethyl-4-[1-(trifluoromethyl)cyclopentanecarbonyl]piperazin-1-yl]-N-{[(2R)-1-methylazetidin-2-yl]methyl}-[2,3′-bipyridine]-6-carboxamide]
< 10 nM	CCOc1ncccc1-c1ccc(N2CCN(C(=O)C3(C(F)(F)F)CCCC3)C[C@H]2CC)c(C(=O)NC[C@@H]2CCN2C)n1 [Compound 1-331, 2′-ethoxy-5-[(2R)-2-ethyl-4-[1-(trifluoromethyl)cyclopentanecarbonyl]piperazin-1-yl]-N-{[(2S)-1-methylazetidin-2-yl]methyl}-[2,3′-bipyridine]-6-carboxamide]
